Results on two compounds are retold here after US7074743B1, “Herbicidal composition comprising 4-iodo-2-[3-(4-methoxy-6-methyl-1,3,5-triazin-2-yl)ureidosulfonyl]benzoic esters” (priority 1995, dated 2006).

Each structure is given as a SMILES string.

What all share (assay type): in vivo
In one data set the test system is Gallium aparine. As to the kind of experiment: Herbicidal action on GALAP, visual scoring vs untreated, post-emergence 2-4 leaf stage. The following applies: Table 11. As for the experimental part: (§1) The examples given below were performed in the greenhouse and, in some cases, in field trials.
(§2) The herbicides, or combinations, were applied in cereals after the weeds had emerged naturally using plot sprayers. After application, the results, such as damage to the crop plants and effect on broad-leaved weeds/grass weeds were assessed by means of visual scoring. The herbicidal action was assessed qualitatively and quantitatively by comparing untreated and treated plots on the basis of the effect on plant growth and the development of chloroses and necroses down to the complete destruction of the weeds (0–100%). The application was effected when the crop plants and weeds were in the 2–4 leaf stage. The test was evaluated approximately 4 weeks after application.
(§3) In the greenhouse experiments, the crop plants and broadleaved weeds/grass weeds were grown in No. 13 pots and treated in the 2–4 leaf stage. The pots were subsequently placed in the greenhouse under good growth conditions (temperature, atmospheric humidity, water supply).
(§4) The assessments were carried out similarly to those in the field trials, i.e. visual scoring of the treated plants in comparison with untreated control variants. These assessments were carried out 3 weeks after applying the test preparations and their combinations. The experiments had been set up in two replications.
(§5) To assess the combination effects, the activities of the individual components were added and compared with the activity of the mixtures in equal doses. It was frequently observed that the efficacies of the combinations exceeded the total of the individual activities.
(§6) In cases with less clear effects, the expected value was calculated using Colby's formula and compared with the empirically determined result. The calculated efficacy of a combination which is expected in theory is determined is using S.R. Colby's formula: “Calculation of synergistic and antagonistic responses of herbicide combinations”, Weeds 15 (1967), pages 20 to 22.
(§7) [formula] where • X=% damage caused by herbicide A at a rate of ×kg a.i./ha; • Y=% damage caused by herbicide B at a rate of y kg a.i./ha; • Z=% damage caused by a further herbicide C at a rate of z kg a.i./ha; • E=expected value, i.e. expected damage caused by herbicides A+B (or A+B+C) at x+y (or x+y+z) kg a.i./ha.
(§8) Synergistic effects were assumed to be when the empirical value exceeded the expected value. In the case of combinations with individual components with the same active substances, comparisons via the total formula were also possible.

A further data set deals with Avena fatua. As to the kind of experiment: Herbicidal action on AVEFA, visual scoring vs untreated, post-emergence 2-4 leaf stage. The following applies: Table 11. As for the experimental part:
as §1, §2, §3, §4, §5, §6, §7, §8

A further data set has as its system Mercurialis annua. As to the kind of experiment: Herbicidal action on MERAN, visual scoring vs untreated, post-emergence 2-4 leaf stage. The conditions noted are these: Table 11. Here is the method:
as §1, §2, §3, §4, §5, §6, §7, §8

For a further data set, the system named is Zea mays. Kind of data set: Damage to crop plant ZEAMA, visual scoring vs untreated. The conditions noted are these: Table 12; 4.5 g of ai/ha. As for the experimental part: as §1, §2, §3, §4
Another data set has as its system Abuthilon theophrastis. As to the kind of experiment: Herbicidal action on ABUTHE, visual scoring vs untreated, post-emergence 2-4 leaf stage. The conditions noted are these: Table 12; 4.5 g of ai/ha. Here is the method:
as §1, §2
(§9) In the greenhouse experiments, the crop plants and broadleaved weeds/grass weeds were grown in No. 13 pots and treated in the 2–4 leaf stage. […]
(§10) In cases with less clear effects, the expected value was calculated using Colby's formula and compared with the empirically determined result. The calculated efficacy of a combination which is expected in theory is determined is using S.R. Colby's formula: “Calculation of synergistic and antagonistic responses of herbicide combinations”, Weeds 15 (1967), pages 20 to 22. […]

Another data set relates to Ambrosia elatior. Kind of data set: Herbicidal action on AMBEL, visual scoring vs untreated, post-emergence 2-4 leaf stage. The following applies: Table 12; 4.5 g of ai/ha. As for the experimental part:
as §1, §2, §9, §10

`CP(=O)(O)CC[C@@H](N)C(=O)O` (racemic) [B49), 4-[hydroxy(methyl)phosphinoyl]-DL-homoalanine]: the GALAP % control came out at 55% in the data set on Gallium aparine (150 g of a.i./ha), 73% in the data set with Gallium aparine (300 g of a.i./ha) and 85% in the data set on Gallium aparine (450 g of a.i./ha). Further, the figures for the AVEFA % control with Avena fatua (150 g of a.i./ha), in the data set on Avena fatua (300 g of a.i./ha) and with Avena fatua (450 g of a.i./ha) were 60%, 70% and 80%, respectively. For the same compound, the results for the MERAN % control in the data set on Mercurialis annua (150 g of a.i./ha), in the data set with Mercurialis annua (300 g of a.i./ha) and in the data set with Mercurialis annua (450 g of a.i./ha) were 65%, 78% and 90%, respectively.
Consider `CCOC(=O)C(Cl)Cc1cc(-n2nc(C)n(C(F)F)c2=O)c(F)cc1Cl` (stereo not drawn) [B31), carfentrazone-ethyl], for which the ZEAMA % damage in the data set on Zea mays stood at 5%. For the same compound, the ABUTHE % control in the data set with Abuthilon theophrastis is on record as 60%. Besides, the AMBEL % control with Ambrosia elatior was 0%.
